Assay results published in patent US8632839B2, “Methods of forming self-supporting films for delivery of therapeutic agents” (priority 2010, dated 2014).
Counter-ions that a name gives are not always drawn.

Assay: saturation and payload limits for dip coating bupivacaine HCl on polyester mesh (FIG. 8)
Format: physicochemical
Settings: Parietex monofilament polyester mesh without polymer film
From the text: Further, it is believed that spraying films on a medical device (e.g., mesh) compared to other conventional methods, such as dip coating, provides increased loading of the therapeutic agent.
More particularly FIG. 8 illustrates the loading limits for a polyester mesh (Parietex™ monofilament mesh) without a polymer film.

saturation and payload limit for dip coating solution (solution in MeOH): 12 % w/v | saturation and payload limit for dip coating solution (solution in water): 5 % w/v
Structure (SMILES): CCCCN1CCCCC1C(=O)Nc1c(C)cccc1C (centres unmarked) [bupivacaine HCl, bupivacaine hydrochloride]
